Measured values published in US12115157B2, “3-phenoxyazetidin-1-yl-heteroaryl pyrrolidine derivatives and the use thereof as medicament” (Boehringer Ingelheim International GmbH, priority 2021, dated 2024).

Tests used:
[1] = system: human hepatocytes; assay: Metabolic stability in human hepatocytes; type: in vitro ADME; details: human hepatocyte suspension, 1 μM; predicted hepatic clearance as percentage of hepatic blood flow
Method: The metabolic degradation of a test compound was assayed in a human hepatocyte suspension. After recovery from cryopreservation, human hepatocytes were diluted in Dulbecco's modified eagle medium (supplemented with 3.5 μg glucagon/500 mL, 2.5 mg insulin/500 mL, 3.75 mg hydrocortisone/500 mL, 5% human serum) to obtain a final cell density of 1.0×10^6 cells/mL or 4.0×10^6 cells/mL, depending on the metabolic turnover rate of the test compound.
Following a 30 minutes preincubation in a cell culture incubator (37° C., 10% CO2), test compound solution was spiked into the hepatocyte suspension, resulting in a final test compound concentration of 1 μM and a final DMSO concentration of 0.05% (v/v).
The cell suspension was incubated at 37° C. (cell culture incubator, horizontal shaker) and samples were removed from the incubation after 0, 0.5, 1, 2, 4 and 6 hours. Samples were quenched with acetonitrile (containing internal standard) and pelleted by centrifugation. The supernatant was transferred to a 96-deepwell plate, and prepared for analysis of decline of parent compound by HPLC-MS/MS.
The percentage of remaining test compound was calculated using the peak area ratio (test compound/internal standard) of each incubation time point relative to the time point 0 peak area ratio. The log-transformed data were plotted versus incubation time, and the absolute value of the slope obtained by linear regression analysis was used to estimate in vitro half-life (T1/2).
In vitro intrinsic clearance (CLint) was calculated from in vitro T1/2 and scaled to whole liver using a hepatocellularity of 120×10^6 cells/g liver, a human liver per body weight of 25.7 g liver/kg as well as in vitro incubation parameters, applying the following equation: CL_[…]_IN VIVO[mL/min/kg]=(CL_[…][μL/min/10^6 cells]×hepatocellularity[10^6 cells/g liver]×liver factor[g/kg body weight])/1000
Hepatic in vivo blood clearance (CL) was predicted according to the well-stirred liver model considering an average liver blood flow (QH) of 20.7 mL/min/kg: CL[mL/min/kg]=CL_[…]_IN VIVO[mL/min/kg]×hepatic blood flow[mL/min/kg]/(CL_[…]_IN VIVO[mL/min/kg]+hepatic blood flow[mL/min/kg])
Results were expressed as percentage of hepatic blood flow: QH[%]=CL[mL/min/kg]/hepatic blood flow[mL/min/kg])

[2] = system: human recombinant CYP enzymes (1A1, 1A2, 2B6, 2C8, 2C9, 2C19, 2D6, 3A4, 3A5); assay: CYP phenotyping with human recombinant CYP enzymes (Supersomes); type: in vitro ADME; set-up: key: yes: Metabolite is formed in presence of human recombinant CYP-enzymes; Metabolite is not detected in presence of human recombinant CYP-enzymes as indication of a non-CYP-dependent pathway
Method: (§1) In vitro metabolite profiling to evaluate the involvement of non-CYP-enzyme-mediated metabolic pathways such as hydrolysis in addition to CYP-mediated pathways is based on the semiquantitative analysis of the formation of prototypic metabolites in incubations with liver microsomes (with and without beta-nicotinamide adenine dinucleotide phosphate, NADPH), primary human hepatocytes (with and without the pan-CYP inhibitor proadifen) and recombinant CYP enzymes.
(§2) The involvement of hydrolases, such as carboxylesterases or arylacetamide deacetylase, is assumed if the metabolite resulting from amide hydrolysis of a compound of the present invention of general formula (I) wherein R^6 is an acetyl-group, i.e. the deacetylated compound thereof, is not formed in presence of the relevant drug-metabolizing human recombinant CYP enzymes but is formed in human liver microsomes in the absence of NADPH. Hydrolases are highly abundant in liver microsomes; however, in contrast to CYP-related metabolic processes, the catalytic activity of hydrolases is independent of NADPH. As such, the deacetylated metabolite would be formed in incubations of human liver microsomes lacking NADPH.
(§3) A phenotyping assay was performed to identify the CYP enzymes responsible for metabolic conversion of the compound. The metabolic degradation of the test compound and the assessment of formation of metabolites was performed using Supersomes (human CYP expressed in baculovirus infected insect cells) and human liver microsomes, respectively. Compounds were tested specifically for their conversion by CYP isoenzymes 1A1, 1A2, 2B6, 2C8, 2C9, 2C19, 2D6, 3A4 and 3A5. […]
(§4) Following a short preincubation period for 15 min at 37° C., the reaction was initiated by addition of NADPH (reduced form, 1 mM). […] Samples were analyzed for formation of putative metabolites by means of by liquid chromatography-high resolution mass spectrometry.

[3] = biological target: human GPR52 (Homo sapiens (Human), UniProt Q9Y2T5); assay: HTRF assay for direct cAMP measurement; type: cell-based; details: CHO-K1 cells stably expressing recombinant human GPR52, mean EC50
Sequence of human GPR52 (Q9Y2T5 whole entry): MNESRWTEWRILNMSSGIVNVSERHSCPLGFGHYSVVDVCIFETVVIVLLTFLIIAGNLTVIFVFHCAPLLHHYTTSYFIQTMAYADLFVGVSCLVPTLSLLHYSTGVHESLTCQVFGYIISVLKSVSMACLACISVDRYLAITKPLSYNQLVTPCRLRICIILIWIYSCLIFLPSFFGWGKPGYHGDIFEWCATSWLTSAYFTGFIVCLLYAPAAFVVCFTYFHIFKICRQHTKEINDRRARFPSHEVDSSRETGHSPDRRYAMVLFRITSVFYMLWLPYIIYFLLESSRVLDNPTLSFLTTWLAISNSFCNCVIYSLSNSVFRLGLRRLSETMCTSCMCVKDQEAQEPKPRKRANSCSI
Method: HTRF cAMP assays were performed using commercially available assay kits according to the manufacturer's instructions (cAMP Dynamic 2 Assay Kit; #62AM4PEJ, Cisbio Bioassays, Bedford, MA). An aliquot of CHO-K1 cells stably expressing recombinant human GPR52 was thawed and resuspended in cell buffer (1×PBS (w/o Ca^2+/Mg^2+)) at a density of 4×10^5 cells per mL. Test compounds were solubilized in DMSO to 10 mM stock solutions and serially diluted in DMSO using 6-fold dilutions to generate 8-point dose response curves. These serially diluted samples were then diluted 1:50 in compound dilution buffer (1×PBS (w/o Ca^2+/Mg^2+) containing 0.5 mM IBMX, 0.1% BSA) to achieve a 4× stock. The diluted compounds were transferred (5 μL per well) in duplicate to the 384-well assay plate (Optiplate #6007290, PerkinElmer, Waltham, MA). Both a positive (reference compound) and negative (non-stimulated vehicle) control was included in each assay run in column 23. The cell suspension was subsequently dispensed into the 384-well assay plates at 15 μL per well (6000 cells) such that the compound was diluted to 1×. […] After a one-hour incubation at room temperature, 10 μL of cAMP D2 reagent followed by 10 μL of cryptate reagent (provided in the Cisbio kit) was added to each well. Plates were then incubated at room temperature for one hour prior to reading. Time-resolved fluorescence measurements were collected on an EnVision® HTRF plate reader (PerkinElmer, Waltham, MA). Counts from the plate reader were fit to the cAMP standard curve included on each plate to determine the amount of cAMP in each test well. The % control was calculated based on the […]. Dose-response curves were generated from the cAMP data and analyzed using a nonlinear least squares curve-fitting program to obtain EC50 values.

[4] = In vitro metabolite profiling in human liver microsomes in absence of NADPH; type: in vitro ADME; set-up: key: yes: Metabolite is formed in presence of human liver microsomes in the absence of cofactors as indication of a non-CYP-dependent pathway; Metabolite is not detected in microsomal incubations
Method: as §1, §2, §3, §4

[5] = secondary metabolite m405 (of m411)
[6] = secondary metabolite m425 (of m411)
[7] = secondary metabolite m443 (of m429)

SMILES | Human HepStab [1] [% QH] | Specific formation in human recombinant CYP enzymes [2, 5] | Specific formation in human recombinant CYP enzymes [2, 6] | EC50 [3] [nM] | Formation in human liver microsomal incubations in absence of NADPH [4, 5] | Formation in human liver microsomal incubations in absence of NADPH [4, 6] | Specific formation in human recombinant CYP enzymes [2, 7] | Formation in human liver microsomal incubations in absence of NADPH [4, 7]
CC(=O)N1C[C@H](NC(=O)c2nccnc2N2CC(Oc3cc(F)cc(F)c3)C2)C(F)(F)C1 [Example 10a] | 15.3 | no^5 | no^5 | 14 | no^5 | no^5 |  | 
CC(=O)N1C[C@H](NC(=O)c2nccnc2N2CC(Oc3cc(F)c(F)c(F)c3)C2)C(F)(F)C1 [Example 11b] | 11.4 |  |  |  |  |  | no | no^6
CC(=O)N1CC[C@@H](NC(=O)c2nsnc2N2CC(Oc3cc(F)cc(F)c3)C2)C1 [Example 15a] | 6.4 |  |  | 20 |  |  |  | 
